Assay results reported in PubChem BioAssay (NCI).
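1) Cells in 96-well plates. 2) Compound, 48 h, 5 concentrations. 3) Linear interpolation between surrounding doses. 4) Unreached endpoint = highest concentration. At the GI50, growth is halved. TGI: concentration producing complete growth inhibition.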

Legend:
Experiment in all cases: growth of human tumour cells (NCI), 48 h
[1] = system: KM12 colon
[2] = system: PC-3 prostate
[3] = system: M14 melanoma
[4] = system: SF-539 CNS
[5] = system: LOX IMVI melanoma
[6] = system: NCI-H460 lung
[7] = system: RPMI-8226 leukemia
[8] = system: EKVX NSCLC
[9] = system: BT-549 breast
[10] = system: SW-620 colon
[11] = system: SNB-75 CNS
[12] = system: OVCAR-3 ovarian
[13] = system: SK-MEL-5 melanoma
[14] = system: A549 NSCLC
[15] = system: T-47D breast
[16] = system: UO-31 renal
[17] = system: NCI-H226 lung
[18] = system: MDA-MB-435
[19] = system: K-562 leukemia
[20] = system: NCI-H522 lung
[21] = system: ACHN renal
[22] = system: SN12C renal
[23] = system: OVCAR-4 ovarian
[24] = system: MALME-3M melanoma
[25] = system: HCC-2998 colon
[26] = system: MOLT-4 leukemia
[27] = system: OVCAR-8 ovarian
[28] = system: SNB-19 CNS
[29] = system: NCI/ADR-RES ovarian
[30] = system: MCF7 breast
[31] = system: SK-MEL-2 melanoma
[32] = system: HS 578T breast
[33] = system: CCRF-CEM leukemia
[34] = system: HOP-92 NSCLC
[35] = system: DU-145 prostate
[36] = system: UACC-257 melanoma
[37] = system: HL-60(TB) leukemia
[38] = system: NCI-H23 lung
[39] = system: TK-10 renal
[40] = system: COLO 205 colon
[41] = system: RXF 393 renal
[42] = system: SF-268 CNS
[43] = system: SR leukemia
[44] = system: IGROV1 ovarian
[45] = system: CAKI-1 renal
[46] = system: HT29 colon
[47] = system: A498 renal
[48] = system: UACC-62 melanoma
[49] = system: HCT-116 colon
[50] = system: OVCAR-5 ovarian
[51] = system: 786-0 renal
[52] = system: MDA-MB-231 breast
[53] = system: SK-OV-3 ovarian
[54] = system: SK-MEL-28 melanoma
[55] = system: SF-295 CNS
[56] = system: U251 CNS
[57] = system: HCT-15 colon
[58] = system: HOP-62 NSCLC

## Cc1cc(O)cc(C)c1/C=C/c1cncc(-c2nn[nH]n2)c1
[1]
  GI50: > 25 µM
  TGI: > 25 µM
[2]
  GI50: > 25 µM
  TGI: > 25 µM
[3]
  GI50: > 25 µM
  TGI: > 25 µM
[4]
  GI50: > 25 µM
  TGI: > 25 µM
[5]
  GI50: > 25 µM
  TGI: > 25 µM
[6]
  GI50: > 25 µM
  TGI: > 25 µM
[7]
  GI50: > 25 µM
  TGI: > 25 µM
[8]
  GI50: > 25 µM
  TGI: > 25 µM
[9]
  GI50: > 25 µM
  TGI: > 25 µM
[10]
  GI50: > 25 µM
  TGI: > 25 µM
[11]
  GI50: > 25 µM
  TGI: > 25 µM
[12]
  GI50: > 25 µM
  TGI: > 25 µM
[13]
  GI50: > 25 µM
  TGI: > 25 µM
[14]
  GI50: > 25 µM
  TGI: > 25 µM
[15]
  GI50: > 25 µM
  TGI: > 25 µM
[16]
  GI50: > 25 µM
  TGI: > 25 µM
[17]
  GI50: > 25 µM
  TGI: > 25 µM
[18]
  GI50: > 25 µM
  TGI: > 25 µM
[19]
  GI50: > 25 µM
  TGI: > 25 µM
[20]
  GI50: > 25 µM
  TGI: > 25 µM
[21]
  GI50: > 25 µM
  TGI: > 25 µM
[22]
  GI50: > 25 µM
  TGI: > 25 µM
[23]
  GI50: > 25 µM
  TGI: > 25 µM
[24]
  GI50: > 25 µM
  TGI: > 25 µM
[25]
  GI50: > 25 µM
  TGI: > 25 µM
[26]
  GI50: > 25 µM
  TGI: > 25 µM
[27]
  GI50: > 25 µM
  TGI: > 25 µM
[28]
  GI50: > 25 µM
  TGI: > 25 µM
[29]
  GI50: > 25 µM
  TGI: > 25 µM
[30]
  GI50: > 25 µM
  TGI: > 25 µM
[31]
  GI50: > 25 µM
  TGI: > 25 µM
[32]
  GI50: > 25 µM
  TGI: > 25 µM
[33]
  GI50: > 25 µM
  TGI: > 25 µM
[34]
  GI50: > 25 µM
  TGI: > 25 µM
[35]
  GI50: > 25 µM
  TGI: > 25 µM
[36]
  GI50: > 25 µM
  TGI: > 25 µM
[37]
  GI50: > 25 µM
  TGI: > 25 µM
[38]
  GI50: > 25 µM
  TGI: > 25 µM
[39]
  GI50: > 25 µM
  TGI: > 25 µM
[40]
  GI50: > 25 µM
  TGI: > 25 µM
[41]
  GI50: > 25 µM
  TGI: > 25 µM
[42]
  GI50: > 25 µM
  TGI: > 25 µM
[43]
  GI50: > 25 µM
  TGI: > 25 µM
[44]
  GI50: > 25 µM
  TGI: > 25 µM
[45]
  GI50: > 25 µM
  TGI: > 25 µM
[46]
  GI50: > 25 µM
  TGI: > 25 µM
[47]
  GI50: > 25 µM
  TGI: > 25 µM
[48]
  GI50: > 25 µM
  TGI: > 25 µM
[49]
  GI50: > 25 µM
  TGI: > 25 µM
[50]
  GI50: > 25 µM
  TGI: > 25 µM
[51]
  GI50: > 25 µM
  TGI: > 25 µM
[52]
  GI50: > 25 µM
  TGI: > 25 µM
[53]
  GI50: > 25 µM
  TGI: > 25 µM
[54]
  GI50: > 25 µM
  TGI: > 25 µM
[55]
  GI50: > 25 µM
  TGI: > 25 µM
[56]
  GI50: > 25 µM
  TGI: > 25 µM
[57]
  GI50: > 25 µM
  TGI: > 25 µM
[58]
  GI50: > 25 µM
  TGI: > 25 µM
